{"source": "paper PMC12114571", "about": "“3-(3-Azabicyclo[2, 2, 1]heptan-2-yl)-1,2,4-oxadiazoles as Novel Potent DPP-4 Inhibitors to Treat T2DM” (Pharmaceuticals, 2025)", "key": {"DPP-8 [1]": {"target": "T1, DPP-8 (Homo sapiens, UniProt Q6V1X1)", "T1 construct": "purchased BPS Bioscience", "T1 sequence (Q6V1X1 whole entry)": "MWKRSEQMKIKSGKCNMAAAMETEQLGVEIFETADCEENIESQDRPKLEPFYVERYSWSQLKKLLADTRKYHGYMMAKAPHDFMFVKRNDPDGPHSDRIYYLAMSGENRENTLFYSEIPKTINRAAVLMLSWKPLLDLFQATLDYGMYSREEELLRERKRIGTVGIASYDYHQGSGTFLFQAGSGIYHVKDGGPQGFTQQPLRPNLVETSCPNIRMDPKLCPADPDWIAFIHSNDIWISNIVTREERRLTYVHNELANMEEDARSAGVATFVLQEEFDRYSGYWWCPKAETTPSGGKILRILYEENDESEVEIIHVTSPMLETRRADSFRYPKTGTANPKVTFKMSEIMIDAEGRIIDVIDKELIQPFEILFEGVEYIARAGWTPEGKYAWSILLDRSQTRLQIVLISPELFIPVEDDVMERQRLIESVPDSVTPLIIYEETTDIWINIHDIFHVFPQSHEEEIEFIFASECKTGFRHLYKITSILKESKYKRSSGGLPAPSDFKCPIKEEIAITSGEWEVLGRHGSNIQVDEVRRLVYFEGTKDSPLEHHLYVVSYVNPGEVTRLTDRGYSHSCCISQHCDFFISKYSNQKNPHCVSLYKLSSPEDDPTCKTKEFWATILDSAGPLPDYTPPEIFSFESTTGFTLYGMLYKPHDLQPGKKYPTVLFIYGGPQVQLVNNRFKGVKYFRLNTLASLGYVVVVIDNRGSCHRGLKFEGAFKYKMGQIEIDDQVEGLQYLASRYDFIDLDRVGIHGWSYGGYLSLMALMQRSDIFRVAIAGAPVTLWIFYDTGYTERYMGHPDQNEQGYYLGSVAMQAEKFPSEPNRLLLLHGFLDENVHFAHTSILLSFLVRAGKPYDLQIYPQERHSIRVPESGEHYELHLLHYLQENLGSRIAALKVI", "assay": "Fluorogenic DPP-8 Assay Kit inhibition assay", "format": "biochemical", "conditions": "for IC50: dilution range 10^−2 to 10^−8 M", "experimental": "(§1) The assessment of DPP-4 enzyme inhibitory activities for the synthesised compounds was performed using protocols similar to those previously described in the literature. […] Following a brief incubation period (37 °C for 30 min), absorbance at 405 nm was measured. Initial optimisation of the procedure utilised reference compounds. […] Correspondingly, the analysis of inhibition activity for related enzymes was executed using DPP-8 and DPP-9 inhibition assays, where the compounds were studied in the dilution range 10^−2 to 10^−8 M (Table 2).\n(§2) For the in vitro assays, we used the substrate Gly-Pro-p-nitroanilide (H-Gly-Pro pNA HCl, G0513) and recombinant dipeptidyl peptidase-4 enzyme (D4943), which were purchased from Sigma-Aldrich (St. Louis, MO, USA). Samples containing DPP-4 (0.0015 U/well) and varying concentrations of test compounds were incubated with the chromogenic peptide substrate, G0513 (90 µg/well), in a total volume of 100 µL of buffer system (50 mM Tris-HCl, 50 mM NaCl, 0.01% Triton, pH = 7.6). The mixtures were incubated at 37 ◦C for 30 min, and the absorbance at 405 nm was measured using the microplate reader ChemWell (Awareness Technology Inc., Palm City, FL, USA). The DPP-4 inhibitory activities for each test compound were calculated. IC50 values were obtained using GraphPad Prism 8 software. The inhibition activity analysis of the related enzymes was performed using the “Fluorogenic DPP-8 Assay Kit” and “Fluorogenic DPP-9 Assay Kit”, both purchased from BPS Bioscience (San Diego, CA, USA). The dilution range for every compound was 10^−2–10^−8 M."}, "[2]": {"target": "T2, recombinant DPP-4 enzyme D4943 (Homo sapiens, UniProt P27487)", "T2 construct": "purchased Sigma-Aldrich D4943", "T2 sequence (P27487 whole entry)": "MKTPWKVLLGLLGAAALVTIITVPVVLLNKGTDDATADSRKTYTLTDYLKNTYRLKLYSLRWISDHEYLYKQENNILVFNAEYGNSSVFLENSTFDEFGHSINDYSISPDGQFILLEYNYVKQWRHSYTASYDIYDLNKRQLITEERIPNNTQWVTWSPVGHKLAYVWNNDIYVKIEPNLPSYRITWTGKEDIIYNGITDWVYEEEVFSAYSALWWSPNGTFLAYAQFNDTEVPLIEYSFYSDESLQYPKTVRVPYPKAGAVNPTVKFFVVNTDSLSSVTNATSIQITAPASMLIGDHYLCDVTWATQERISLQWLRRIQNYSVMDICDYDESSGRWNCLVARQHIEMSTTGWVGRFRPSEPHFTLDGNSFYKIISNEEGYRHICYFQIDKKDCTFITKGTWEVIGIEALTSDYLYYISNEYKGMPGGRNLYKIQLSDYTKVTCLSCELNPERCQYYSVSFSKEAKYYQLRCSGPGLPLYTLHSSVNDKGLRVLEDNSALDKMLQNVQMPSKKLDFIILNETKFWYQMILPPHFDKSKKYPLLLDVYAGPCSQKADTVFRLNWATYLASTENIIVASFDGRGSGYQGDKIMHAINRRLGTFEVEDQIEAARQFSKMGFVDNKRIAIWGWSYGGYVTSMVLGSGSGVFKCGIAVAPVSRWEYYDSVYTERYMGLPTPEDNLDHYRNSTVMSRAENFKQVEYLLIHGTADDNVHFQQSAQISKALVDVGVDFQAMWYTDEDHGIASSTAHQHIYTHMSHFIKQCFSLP", "assay": "DPP-4 enzyme inhibitory assay, chromogenic substrate Gly-Pro-pNA, absorbance at 405 nm", "format": "biochemical", "conditions": "37 °C for 30 min, pH = 7.6, dilution range 10^−4 to 10^−11 M", "experimental": "as §1, §2"}, "DPP-9 [3]": {"target": "T3, DPP-9 (Homo sapiens, UniProt Q86TI2)", "T3 construct": "purchased BPS Bioscience", "T3 sequence (Q86TI2 whole entry)": "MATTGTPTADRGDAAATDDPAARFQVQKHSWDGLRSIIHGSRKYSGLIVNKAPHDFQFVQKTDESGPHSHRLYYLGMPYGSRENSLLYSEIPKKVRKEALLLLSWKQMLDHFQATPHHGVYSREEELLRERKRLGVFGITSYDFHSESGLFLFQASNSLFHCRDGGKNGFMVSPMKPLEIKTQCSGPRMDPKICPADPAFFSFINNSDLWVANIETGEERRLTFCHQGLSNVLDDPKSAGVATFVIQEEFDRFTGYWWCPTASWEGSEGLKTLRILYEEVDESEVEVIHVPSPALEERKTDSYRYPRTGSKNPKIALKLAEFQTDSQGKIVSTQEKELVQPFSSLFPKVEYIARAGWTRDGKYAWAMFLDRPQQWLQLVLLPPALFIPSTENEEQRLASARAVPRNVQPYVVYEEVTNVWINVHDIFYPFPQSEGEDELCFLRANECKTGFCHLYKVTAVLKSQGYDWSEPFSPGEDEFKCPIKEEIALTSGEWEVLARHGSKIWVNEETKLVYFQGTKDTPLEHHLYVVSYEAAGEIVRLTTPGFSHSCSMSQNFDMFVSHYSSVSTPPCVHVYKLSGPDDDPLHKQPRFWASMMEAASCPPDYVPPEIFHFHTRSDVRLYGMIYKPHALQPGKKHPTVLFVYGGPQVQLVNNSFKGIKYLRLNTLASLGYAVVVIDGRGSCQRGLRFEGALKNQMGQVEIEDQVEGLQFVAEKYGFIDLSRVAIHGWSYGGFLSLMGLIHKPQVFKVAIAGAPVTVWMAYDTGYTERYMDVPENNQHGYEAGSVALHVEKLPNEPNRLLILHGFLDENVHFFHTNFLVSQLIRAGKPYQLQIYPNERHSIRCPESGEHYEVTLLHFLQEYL", "assay": "Fluorogenic DPP-9 Assay Kit inhibition assay", "format": "biochemical", "conditions": "for IC50: dilution range 10^−2 to 10^−8 M", "experimental": "as §1, §2"}, "DPP-8 [4]": {"target": "T1, DPP-8", "design": "method as in PMID 35337071", "conditions": "neogliptin reference value; cited from earlier work"}, "[5]": {"target": "T2, recombinant DPP-4 enzyme D4943", "design": "method as in PMID 35337071", "conditions": "neogliptin reference value; cited from earlier work"}, "DPP-9 [6]": {"target": "T3, DPP-9", "design": "method as in PMID 35337071", "conditions": "neogliptin reference value; cited from earlier work"}, "[7]": {"conditions": "concentration range 10^−3–10^−6 M"}}, "note": "Like-named read-outs stand apart in the source and are kept apart here.", "data": [{"molecule": "N[C@@H](CC(=O)N1C2CCC(C2)[C@@H]1c1nc(-c2ccccc2)no1)Cc1cc(F)c(F)cc1F", "note": "(stereo partly drawn) [9b, (3R)-3-Amino-1-[(3R)-3-(3-phenyl-1,2,4-oxadiazol-5-yl)-2-azabicyclo[2.2.1]heptan-2-yl]-4-(2,4,5-trifluorophenyl)butan-1-one]", "values": [{"measurement": "IC50", "setting": "DPP-8 [1]", "value": "> 1", "unit": "µM"}, {"measurement": "IC50", "setting": "[2]", "value": "> 1", "unit": "µM"}, {"measurement": "IC50", "setting": "DPP-9 [3]", "value": "> 1", "unit": "µM"}]}, {"molecule": "N[C@@H](CC(=O)N1C2CCC(C2)[C@@H]1c1noc(-c2ccccc2)n1)Cc1cc(F)c(F)cc1F", "note": "(stereo partly drawn) [3b, (3R)-3-Amino-1-[(3R)-3-(5-phenyl-1,2,4-oxadiazol-3-yl)-2-azabicyclo[2.2.1]heptan-2-yl]-4-(2,4,5-trifluorophenyl)butan-1-one]", "values": [{"measurement": "IC50", "setting": "DPP-8 [1]", "value": "> 1", "unit": "µM"}, {"measurement": "IC50", "setting": "[2]", "value": "> 1", "unit": "µM"}, {"measurement": "IC50", "setting": "DPP-9 [3]", "value": "> 1", "unit": "µM"}]}, {"molecule": "N#CC1C2CCC(C2)N1C(=O)CC(N)Cc1cc(F)c(F)cc1F", "note": "(centres unmarked) [Neogliptin, neogliptin]", "values": [{"measurement": "IC50", "setting": "DPP-8 [4]", "value": "> 1", "unit": "µM"}, {"measurement": "IC50", "setting": "[5]", "value": 0.0168, "unit": "µM"}, {"measurement": "IC50", "setting": "DPP-9 [6]", "value": "> 1", "unit": "µM"}]}, {"molecule": "N[C@@H](CC(=O)N1C2CCC(C2)[C@H]1c1nc(-c2ccccc2)no1)Cc1cc(F)c(F)cc1F", "note": "(stereo partly drawn) [9a, (3R)-3-Amino-1-[(3S)-3-(3-phenyl-1,2,4-oxadiazol-5-yl)-2-azabicyclo[2.2.1]heptan-2-yl]-4-(2,4,5-trifluorophenyl)butan-1-one]", "values": [{"measurement": "DPP-8 inhibitory activity (in words)", "setting": "DPP-8 [1]; [7]", "value": "did not mediate any substantial inhibition"}, {"measurement": "IC50", "setting": "DPP-8 [1]", "value": "> 1", "unit": "µM"}, {"measurement": "IC50", "setting": "[2]", "value": 0.0043, "unit": "µM"}, {"measurement": "DPP-9 inhibitory activity (in words)", "setting": "DPP-9 [3]; [7]", "value": "did not mediate any substantial inhibition"}, {"measurement": "IC50", "setting": "DPP-9 [3]", "value": "> 1", "unit": "µM"}]}, {"molecule": "N[C@@H](CC(=O)N1C2CCC(C2)[C@H]1c1noc(-c2ccccc2)n1)Cc1cc(F)c(F)cc1F", "note": "(stereo partly drawn) [3a, (3R)-3-Amino-1-[(3S)-3-(5-phenyl-1,2,4-oxadiazol-3-yl)-2-azabicyclo [2.2.1]heptan-2-yl]-4-(2,4,5-trifluorophenyl)butan-1-one]", "values": [{"measurement": "IC50", "setting": "DPP-8 [1]", "value": "> 1", "unit": "µM"}, {"measurement": "IC50", "setting": "[2]", "value": 0.0216, "unit": "µM"}, {"measurement": "IC50", "setting": "DPP-9 [3]", "value": "> 1", "unit": "µM"}]}]}
